One series concerns Colinus virginianus. The conditions noted are these: for LD50: acute, oral, mortality.
The test system of a further series is Elodea callitrichoides. The conditions noted are these: chronic/long-term; duration: 42 days.
The next series deals with Hypoaspis aculeifer. As to conditions: chronic/long-term; mortality.
In a further series the test system is Tagia sp. The conditions noted are these: chronic/long-term; growth.
The next series has as its system Daphnia magna. As to conditions: chronic/long-term; duration: 21 days; reproduction.
In the next series the test system is Rattus norvegicus. As to conditions: acute; oral; mortality.
A further series concerns Oryctolagus sp. The conditions noted are these: reproduction developmental.
For a further series, the system named is Apis mellifera. The conditions noted are these: acute, mortality.

Each structure is given as a SMILES string. Values after ≈ are worked out from the molar mass of the structure shown.

Results on one compound are retold here after EPA's ToxValDB 9.5 (doi:10.2903/j.efsa.2017.4976).

Usually NOAEL stands for the highest dose or exposure tested at which no adverse effect was seen. As usually defined, the LC50 is the concentration that kills 50% of the test population. As to `CNC1=C(c2cccc(C(F)(F)F)c2)C(=O)C(c2ccccc2)O1` (stereo not drawn) [Flurtamone], the LD50 in the series with Colinus virginianus (diet) was over 1580 mg/kg-day; with Colinus virginianus it was over 2530 mg/kg; in the series on Rattus norvegicus, over 5000 mg/kg-day; in the series with Apis mellifera (dermal), over 100 µg/piece; with Apis mellifera (oral, unspecified), over 105 µg/piece. The compound further registered an NOEL with Colinus virginianus (reproduction developmental) of 7.3 mg/kg-day. For the same compound, the NOEC came to 0.001 mg/L in the series on Elodea callitrichoides; 89 mg/kg in the series on Hypoaspis aculeifer; 47.5 mg/kg with Tagia sp.; 0.071 mg/L with Daphnia magna; 0.188 mg/L with Pimephales promelas (chronic/long-term, growth). For the same compound, the NOAEL in the series on Oryctolagus sp. is 20 mg/kg-day. The same compound registered an LC50 with Pimephales promelas (acute, duration: 96 hours, oral, feed, mortality) of 6.64 µg/mL (≈ 19.9 µM).
